From ChEMBL document CHEMBL1145107, “Peptide science: exploring the use of chemical principles and interdisciplinary collaboration for understanding life processes” (J Med Chem, 2003) come the findings set out here.

Experiment [1] addresses Mu-type opioid receptor (Cavia porcellus) (UniProt P97266). The experiment can be described thus: In vitro bioassay data to determine the effective concentration required for antagonistic activity against Opioid receptor mu 1 in functional assay, GPI at a concentration of 82 uM. On the set-up: scale not given: the % may be the effect or the level left.
In experiment [2] the target is T1, Mu-type opioid receptor (Homo sapiens, UniProt P35372). Kind of experiment: (§1) Binding affinity towards Opioid receptor mu 1 using [3H]- CTOP as radioligand.
The target in experiment [3] is Mu-type opioid receptor (Cavia porcellus) (UniProt P97266). The experiment can be described thus: In vitro bioassay data to determine the effective concentration required for antagonistic activity against Opioid receptor mu 1 in functional assay, GPI at a concentration of 60 uM. More on the design: scale not given: the % may be the effect or the level left.
Experiment [4] has as its target Delta-type opioid receptor (Rattus norvegicus, UniProt P33533). The experiment can be described thus: Binding affinity towards Opioid receptor delta 1 using [3H]- [p-CIPhe4] DPDPE as radioligand.
Experiment [5] addresses T1, Mu-type opioid receptor. The description is as §1. The source holds these as a separate data set.
The target of experiment [6] is Delta-type opioid receptor (Mus musculus, UniProt P32300). Kind of experiment: In vitro bioassay data to determine the effective concentration required for antagonistic activity against Opioid receptor delta 1 in functional assay, MVD.
Experiment [7] has as its target Mu-type opioid receptor (Cavia porcellus, UniProt P97266). The experiment can be described thus: In vitro bioassay data to determine the effective concentration required for antagonistic activity against Opioid receptor mu 1 in functional assay, GPI.

pEC50, pIC50: −log10 of the molar value. *1 amine or outer side, *2 acyl side, *3 side chain or, on linkers, in order; H or OH if unused. Where a SMILES comes first, the peptide text is derived from it. [ ]: non-standard residue; d: D form. X1 = Cc1cc(O)cc(C)c1[C@H](C)[C@@H](N[*:1])C(=O)[*:2]; X3 = Cc1cc(O)cc(C)c1[C@@H](C)[C@H](N[*:1])C(=O)[*:2]; Pen = CC(C)(S)[C@H](N)C(=O)O

T1 sequence (P35372 whole entry): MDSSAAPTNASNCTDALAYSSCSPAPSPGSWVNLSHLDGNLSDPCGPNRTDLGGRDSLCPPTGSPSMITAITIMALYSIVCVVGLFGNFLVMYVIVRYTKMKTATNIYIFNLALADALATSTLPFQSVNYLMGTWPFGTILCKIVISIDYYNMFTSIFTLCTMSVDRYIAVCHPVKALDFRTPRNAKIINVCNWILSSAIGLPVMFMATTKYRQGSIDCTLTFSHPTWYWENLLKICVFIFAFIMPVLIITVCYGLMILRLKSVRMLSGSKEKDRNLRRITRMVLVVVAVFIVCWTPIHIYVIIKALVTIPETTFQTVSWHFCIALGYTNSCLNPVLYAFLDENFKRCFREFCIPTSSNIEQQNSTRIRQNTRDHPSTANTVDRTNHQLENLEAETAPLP
Sequence of Mu-type opioid receptor (Cavia porcellus) (P97266 whole entry): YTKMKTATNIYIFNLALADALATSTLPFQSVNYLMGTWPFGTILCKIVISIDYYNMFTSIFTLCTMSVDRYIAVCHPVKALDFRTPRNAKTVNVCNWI
Sequence of Delta-type opioid receptor (Mus musculus, UniProt P32300) (P32300 whole entry): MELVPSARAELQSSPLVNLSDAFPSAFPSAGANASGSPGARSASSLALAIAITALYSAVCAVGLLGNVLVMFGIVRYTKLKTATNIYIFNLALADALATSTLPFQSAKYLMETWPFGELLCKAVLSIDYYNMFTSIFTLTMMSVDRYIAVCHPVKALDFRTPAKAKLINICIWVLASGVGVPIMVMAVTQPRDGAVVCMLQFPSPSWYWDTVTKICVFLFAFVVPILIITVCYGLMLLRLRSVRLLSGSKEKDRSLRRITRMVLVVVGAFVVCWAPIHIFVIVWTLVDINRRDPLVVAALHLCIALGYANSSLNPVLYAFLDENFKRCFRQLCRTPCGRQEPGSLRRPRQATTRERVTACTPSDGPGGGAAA
Sequence of Delta-type opioid receptor (Rattus norvegicus, UniProt P33533) (P33533 whole entry): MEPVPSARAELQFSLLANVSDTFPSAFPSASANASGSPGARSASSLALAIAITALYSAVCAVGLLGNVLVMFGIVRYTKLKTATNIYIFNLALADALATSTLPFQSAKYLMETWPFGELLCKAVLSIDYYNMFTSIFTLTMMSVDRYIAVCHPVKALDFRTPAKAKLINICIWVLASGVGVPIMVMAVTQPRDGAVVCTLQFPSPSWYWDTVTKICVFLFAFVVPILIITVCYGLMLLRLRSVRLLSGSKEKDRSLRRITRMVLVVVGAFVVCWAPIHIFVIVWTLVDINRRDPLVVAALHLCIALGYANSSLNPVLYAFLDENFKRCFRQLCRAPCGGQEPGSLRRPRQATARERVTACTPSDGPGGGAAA
Sequence of Mu-type opioid receptor (Cavia porcellus, UniProt P97266) (P97266 whole entry): as the sequence (P97266 whole entry) above

As for `Cc1cc(O)cc(C)c1[C@H](C)[C@@H](N)C(=O)N[C@H](C(=O)NCC(=O)N[C@@H](Cc1ccccc1)C(=O)N[C@H](C(=O)O)C(C)(C)S)C(C)(C)S` (H-[X1][Pen]GF[Pen]-OH), the values for the Activity (in experiment [1]; at Mu-type opioid receptor [2]) were 75% and 0%, respectively.

`Cc1cc(O)cc(C)c1[C@@H](C)[C@H](N)C(=O)N[C@H](C(=O)NCC(=O)N[C@@H](Cc1ccccc1)C(=O)N[C@H](C(=O)O)C(C)(C)S)C(C)(C)S` (H-[X3][Pen]GF[Pen]-OH) returned an Activity in experiment [3] of 0%.

Consider `Cc1cc(O)cc(C)c1[C@@H](C)[C@@H](N)C(=O)N[C@H]1C(=O)NCC(=O)N[C@@H](Cc2ccccc2)C(=O)N[C@@H](C(=O)O)C(C)(C)SSC1(C)C`, for which the results for the pIC50 (in experiment [4]; at Mu-type opioid receptor [5]) were 5.46 and 4.11, respectively. Further, the pEC50 (usually the EC50 on a negative log10 scale, so that one unit is a factor of ten) in experiment [6] is 5.66; at Mu-type opioid receptor [7], 4.30.
